# What was measured:
# [1] = TK assay, intravenous mixture dosing: serum concentrations and noncompartmental analysis (sparse data)
# Method: (§1) The experiment was carried out on thirty 10-wk old female New Zealand white rabbits (INRA 1777 line) weighing 2.37±0.14kg . […] Blood samples were taken at the designated time points post IV and oral administration: 15 min, 30 min, 1 h, 2 h, 4 h, 8 h, 12 h, 24 h, 3 d, 7 d, and 28 d from groups of 3 or 6 rabbits at each sampling time. Each rabbit was sampled 3 times and 3 rabbits were sampled at each sampling time, except at 30 min post administration, when 6 samples were collected to provide a sufficient blood volume for assaying the compounds. The doses and assay time points were selected to allow the calculation of TK parameters (Table 1) based on preliminary TK data. Residual concentrations of the compounds, and their possible evolution over time, were determined by sampling six entirely untreated rabbits during the TK study on the day of drug administrations, then 14 d and 28 d later.
# (§2) The volume administered was adjusted to the animal’s body weight (BW) recorded the day before.
# (§3) Intravenous administrations were performed via an indwelling catheter (22G Terumo, 0.9×25mm ) just after its insertion into an ear vein. […] For oral administrations, the mixture of all compounds ( 4mL/kg ) was deposited directly in the mouth of rabbits using a catheter (22G BD Insyte 22G, 0.9×25mm ). Prior to the study, the rabbits had been trained to gradually swallow water and then corn oil.
# (§4) Blood samples were collected from the auricular artery using a 20 G needle ( 0.9×25mm ) and a dry tube. The first two blood samples were 8–10mL in volume, whereas a large volume (about 20mL ) was obtained antemortem immediately after electrical stunning (95LX rabbit stunner; Burdis), followed by exsanguination.
# (§5) Serum concentration-time profiles of the different compounds were first analyzed using a noncompartmental approach (NCA) involving a sparse data option. Sparse data methodology consists of calculating TK parameters based on the mean profile of all the subjects in the dataset and is appropriate when a rich data series cannot be obtained, as in the present experiment ([FDA 1999]). The area under the concentration time curve ( AUC0−tlast ) and the area under the first moment curve ( AUMC0−tlast ) from dosing time ( t=0 ) to the time of the last measurable concentration were calculated using the linear trapezoidal rule after IV and oral dosing. The area under the serum concentration time curve from dosing time to infinity ( AUC0−inf ) was obtained by adding to AUC0−tlast the area extrapolated from the time of the last measurable concentration to infinity by dividing the last quantifiable serum concentration by the slope of the terminal phase ( λZ ), as estimated by linear regression using the best fit option of Phoenix®.
# (§6) The clearance (CL) and apparent clearance (CL_F) were respectively estimated after IV and oral administrations by dividing the administered dose by the AUC0−inf calculated for each analyte.
# (§7) The terminal half-life (HL) was estimated with Equation 1: (1) HL=0.69315/λZ where λz is the slope of the terminal phase.
# The mean residence time (MRT) was estimated using Equation 3: (3) MRT=AUMCiv0−tlast /AUCiv0−tlast , where AUCMiv0−tlast and AUCiv0−tlast are the values of AUMC0−tlast and AUC0−tlast obtained after IV dosing.
# The steady-state volume of distribution ( VSS ) was estimated using Equation 4: (4) VSS=CL×MRT, with CL and MRT as defined above.
# [2] = TK assay, oral mixture dosing: serum concentrations and noncompartmental analysis (sparse data)
# Method: as §1, §2, §3, §4, §5, §6, §7
# The oral bioavailability (F) was estimated using Equation 2: (2) F=AUCvo0−tlast×Doseiv/AUCiv0−tlast×Dosevo, where AUCiv0−tlast and AUCvo0-tlast are the values of AUC0−tlast obtained after IV and oral dosing, respectively, and Doseiv and Dosevo are the IV and oral doses.
# [3] = oral mixture dosing, NCA, n=12, MEHP after oral DEHP
# [4] = female, New Zealand white (INRA 1777 line), rabbit, in vivo, iv
# [5] = female, New Zealand white, rabbit, in vivo, iv, Serum concentration
# [6] = female, New Zealand white (INRA 1777 line), rabbit, in vivo, po
# [7] = female, New Zealand white (INRA 1777 line), rabbit, in vivo, po, Serum concentration
# [8] = female, New Zealand white, rabbit, in vivo, po, Serum concentration
structure (smiles),measurement,setting,value
"O=S(=O)(O)C(F)(F)C(F)(F)C(F)(F)C(F)(F)C(F)(F)C(F)(F)C(F)(F)C(F)(F)F [nPFOS, linear isomer of perfluorooctane sulfonate]",CL,"[1]; IV mixture dosing, NCA, n=12",0.00577 mL/min/kg
same,MRT,"[1]; IV mixture dosing, NCA, n=12",40.5 days
same,VSS,"[1]; IV mixture dosing, NCA, n=12",0.336 L/kg
same,VZ,"[1]; IV mixture dosing, NCA, n=12",0.353 L/kg
same,Serum concentration,"[1]; IV, rabbit 1, 0.30 h",320 nM
same,Serum concentration,"[1]; IV, rabbit 1, 4.38 h",280 nM
same,Serum concentration,"[1]; IV, rabbit 1, 24.03 h",260 nM
same,Serum concentration,"[1]; IV, rabbit 2, 0.28 h",430 nM
same,Serum concentration,"[1]; IV, rabbit 2, 4.05 h",280 nM
same,Serum concentration,"[1]; IV, rabbit 3, 0.35 h",380 nM
same,Serum concentration,"[1]; IV, rabbit 3, 4.05 h",370 nM
same,Serum concentration,"[1]; IV, rabbit 4, 0.62 h",350 nM
same,Serum concentration,"[1]; IV, rabbit 4, 72.00 h",290 nM
same,Serum concentration,"[1]; IV, rabbit 5, 0.75 h",380 nM
same,Serum concentration,"[1]; IV, rabbit 5, 72.03 h",310 nM
same,Serum concentration,"[1]; IV, rabbit 6, 0.57 h",360 nM
same,Serum concentration,"[1]; IV, rabbit 6, 71.97 h",330 nM
same,Serum concentration,"[1]; IV, rabbit 7, 11.98 h",290 nM
same,Serum concentration,"[1]; IV, rabbit 7, 168.00 h",270 nM
same,Serum concentration,"[1]; IV, rabbit 8, 12.02 h",240 nM
same,Serum concentration,"[1]; IV, rabbit 8, 167.92 h",230 nM
same,Serum concentration,"[1]; IV, rabbit 9, 11.97 h",310 nM
same,Serum concentration,"[1]; IV, rabbit 9, 168.00 h",280 nM
same,Serum concentration,"[1]; IV, rabbit 10, 671.96 h",150 nM
same,Serum concentration,"[1]; IV, rabbit 11, 672.00 h",160 nM
same,Serum concentration,"[1]; IV, rabbit 12, 671.83 h",190 nM
same,AUC0−inf,"[1]; serum, IV mixture dosing, NCA, n=12",330 µM·h
same,Cmax,"[1]; serum, IV mixture dosing, NCA, n=12, doses in Table 2 r3, BPSG after BPS dosing",427 nM
same,half-life,"[1]; terminal, IV mixture dosing, NCA, n=12",29.5 days
same,Oral bioavailability estimated by NCA,[2]; NCA,greater than 100%
same,CL_F (apparent clearance),"[2]; oral mixture dosing, NCA, n=12",0.00347 mL/min/kg
same,MRT,[2]; [3],69.92 days
same,Tmax,[2]; [3],1 days
same,VZ_F (apparent volume of distribution associated to the terminal phase),[2]; [3],0.359 L/kg
same,Serum concentration,"[2]; oral, rabbit 13, 4.30 h, MEHP after oral DEHP",710 nM
same,Serum concentration,"[2]; oral, rabbit 14, 0.37 h, MEHP after oral DEHP",230 nM
same,Serum concentration,"[2]; oral, rabbit 14, 4.17 h, MEHP after oral DEHP",890 nM
same,Serum concentration,"[2]; oral, rabbit 15, 4.05 h, MEHP after oral DEHP",1040 nM
same,Serum concentration,"[2]; oral, rabbit 15, 23.98 h, MEHP after oral DEHP",1280 nM
same,Serum concentration,"[2]; oral, rabbit 16, 0.55 h, MEHP after oral DEHP",140 nM
same,Serum concentration,"[2]; oral, rabbit 16, 72.00 h, MEHP after oral DEHP",1100 nM
same,Serum concentration,"[2]; oral, rabbit 17, 0.53 h, MEHP after oral DEHP",120 nM
same,Serum concentration,"[2]; oral, rabbit 17, 72.00 h, MEHP after oral DEHP",1540 nM
same,Serum concentration,"[2]; oral, rabbit 18, 0.55 h, MEHP after oral DEHP",290 nM
same,Serum concentration,"[2]; oral, rabbit 18, 71.96 h, MEHP after oral DEHP",1250 nM
same,Serum concentration,"[2]; oral, rabbit 19, 12.00 h, MEHP after oral DEHP",660 nM
same,Serum concentration,"[2]; oral, rabbit 19, 168.02 h",1010 nM
same,Serum concentration,"[2]; oral, rabbit 20, 12.00 h, MEHP after oral DEHP",690 nM
same,Serum concentration,"[2]; oral, rabbit 20, 168.00 h",1070 nM
same,Serum concentration,"[2]; oral, rabbit 21, 12.00 h, MEHP after oral DEHP",810 nM
same,Serum concentration,"[2]; oral, rabbit 21, 168.00 h",1060 nM
same,Serum concentration,"[2]; oral, rabbit 22, 672.02 h",450 nM
same,Serum concentration,"[2]; oral, rabbit 23, 671.96 h",820 nM
same,Serum concentration,"[2]; oral, rabbit 24, 672.02 h",1020 nM
same,AUC0−inf,"[2]; serum, oral mixture dosing, NCA, n=12, MEHP after oral DEHP","1,919 μmol×h/L"
same,Cmax,"[2]; serum, oral mixture dosing, NCA, n=12, doses in Table 3 r3, MEHP measured after oral DEHP, BPSG after BPS",1300 nM
"ClC(Cl)=C(c1ccc(Cl)cc1)c1ccc(Cl)cc1 [pp′DDE, 1,1-Dichloro-2,2-bis(p-chlorophenyl)ethylene]",AUC(0-inf),[1]; [4],19.8 µM·h
same,Cmax,[1]; [4],900 nM
same,MRT,[1]; [4],8.46 days
same,clearance,[1]; [4],1.83 mL/min/kg
same,half-life,[1]; [4],9.92 days
same,Vd,"[1]; female, New Zealand white (INRA 1777 line), rabbit, in vivo, iv, VSS",23.2 L/kg
same,Vd,"[1]; female, New Zealand white (INRA 1777 line), rabbit, in vivo, iv, VZ",39.2 L/kg
same,Serum concentration,"[1]; female, New Zealand white, rabbit, in vivo, iv, 24 h",60 nM
same,Serum concentration,"[1]; female, New Zealand white, rabbit, in vivo, iv, 168 h",15 nM
same,concentration at 0.6 h,[1]; [5],600 nM
same,concentration at 0.67 h,[1]; [5],900 nM
same,concentration at 0.77 h,[1]; [5],640 nM
same,concentration at 24 h,[1]; [5],65 nM
same,concentration at 24.03 h,[1]; [5],47 nM
same,concentration at 71.97 h,[1]; [5],27 nM
same,concentration at 72 h,[1]; [5],26 nM
same,concentration at 72.03 h,[1]; [5],27 nM
same,concentration at 167.92 h,[1]; [5],11 nM
same,concentration at 168 h,[1]; [5],19 nM
same,concentration at 671.83 h,[1]; [5],3.7 nM
same,concentration at 671.96 h,[1]; [5],2.8 nM
same,concentration at 672 h,[1]; [5],6.8 nM
same,AUC(0-inf),[2]; [6],78.6 µM·h
same,CL/F,[2]; [6],3 mL/min/kg
same,Cmax,[2]; [6],580 nM
same,MRT,[2]; [6],12.8 days
same,Tmax,[2]; [6],1 days
same,Vd/F,[2]; [6],68.8 L/kg
same,bioavailability,[2]; [6],62%
same,half-life,[2]; [6],10.8 days
same,Serum concentration,"[2]; female, New Zealand white (INRA 1777 line), rabbit, in vivo, po, 24 h",430 nM
same,Serum concentration,"[2]; female, New Zealand white (INRA 1777 line), rabbit, in vivo, po, 672.02 h",40 nM
same,concentration at 0.57 h,[2]; [7],16 nM
same,concentration at 23.98 h,[2]; [7],250 nM
same,concentration at 24 h,[2]; [7],720 nM
same,concentration at 168 h,[2]; [7],110 nM
same,concentration at 671.96 h,[2]; [7],24 nM
same,concentration at 672.02 h,[2]; [7],31 nM
same,Serum concentration,"[2]; female, New Zealand white, rabbit, in vivo, po, 72 h",200 nM
same,concentration at 71.96 h,[2]; [8],250 nM
same,concentration at 72 h,[2]; [8],140 nM
same,concentration at 168 h,[2]; [8],110 nM
same,concentration at 168.02 h,[2]; [8],91 nM

# From publication PMC8597046, “Use of Mixture Dosing and Nonlinear Mixed Effect Modeling of Eight Environmental Contaminants in Rabbits to Improve Extrapolation Value of Toxicokinetic Data” (Environmental Health Perspectives, 2021)
